Literature values in patent US20130324497A1, “COMPOSITIONS AND METHODS FOR TREATING HEPATITIS B VIRUS INFECTION” (priority 2012, published 2013).
“Also recorded” adds a separate entry of the source. Like-named read-outs stand apart in the source and are kept apart here.

Legend:
hepatitis B virus = conditions: for cumulative rate of resistance: 5 years
[1] = in vivo
[2] = system: HBV mutants resistant to lamivudine

Structure (SMILES)	cumulative rate of resistance (hepatitis B virus; HBeAg negative patients) [%]	cumulative rate of resistance (hepatitis B virus; HBeAg positive patients)	adefovir-associated nephrotoxicity, patients [1]	5-year resistance rate (hepatitis B virus; 5-year, monotherapy)	susceptibility of lamivudine-resistant mutants [2]
CC(C)(C)C(=O)OCOP(=O)(COCCn1cnc2c(N)ncnc21)OCOC(=O)C(C)(C)C [adefovir dipivoxil, 9-[2-[[bis[(pivaloyloxy)methoxy]-phosphinyl]-methoxy]ethyl]adenine]	~29	about 20%	up to 47%	–	–
Nc1ncnc2c1ncn2CCOCP(=O)(O)O [adefovir]	–	–	–	20-30%	retain susceptibility; also recorded: remain susceptible
